pKi: −log10 of the molar value.
target: ATR kinase (full-length ATR) (Homo sapiens (Human), UniProt Q13535); experiment: ATR inhibition assay (radioactive-phosphate incorporation); format: biochemical; conditions: Ki(app), 5 nM full-length ATR, 10 μM ATP, 25° C.
Experimental: Compounds were screened for their ability to inhibit ATR kinase using a radioactive-phosphate incorporation assay. Assays were carried out in a mixture of 50 mM Tris/HCl (pH 7.5), 10 mM MgCl2 and 1 mM DTT. Final substrate concentrations were 10 μM [γ-33P]ATP (3mCi 33P ATP/mmol ATP, Perkin Elmer) and 800 μM target peptide ([…]) (SEQ ID NO:1).
Assays were carried out at 25° C. in the presence of 5 nM full-length ATR. An assay stock buffer solution was prepared containing all of the reagents listed above, with the exception of ATP and the test compound of interest. 13.5 μL of the stock solution was placed in a 96 well plate followed by addition of 2 μL of DMSO stock containing serial dilutions of the test compound (typically starting from a final concentration of 15 μM with 3-fold serial dilutions) in duplicate (final DMSO concentration 7%). The plate was pre-incubated for 10 minutes at 25° C. and the reaction initiated by addition of 15 μL [γ-33P]ATP (final concentration 10 μM).
The reaction was stopped after […] by the addition of 30 μL 0.1M phosphoric acid containing 2 mM ATP. A multiscreen phosphocellulose filter 96-well plate (Millipore, Cat no. MAPHN0B50) was pretreated with 100 μL 0.2M phosphoric acid prior to the addition of […] of the stopped assay mixture. The plate was washed with 5×200 μL 0.2M phosphoric acid. After drying, 100 μL Optiphase ‘SuperMix’ liquid scintillation cocktail (Perkin Elmer) was added to the well prior to scintillation counting (1450 Microbeta Liquid Scintillation Counter, Wallac).
After removing mean background values for all of the data points, Ki(app) data were calculated from non-linear regression analysis of the initial rate data using the Prism software package (GraphPad Prism version 3.0cx for Macintosh, GraphPad Software, San Diego Calif., USA).

ATR kinase (full-length ATR), sequence (Q13535 whole entry): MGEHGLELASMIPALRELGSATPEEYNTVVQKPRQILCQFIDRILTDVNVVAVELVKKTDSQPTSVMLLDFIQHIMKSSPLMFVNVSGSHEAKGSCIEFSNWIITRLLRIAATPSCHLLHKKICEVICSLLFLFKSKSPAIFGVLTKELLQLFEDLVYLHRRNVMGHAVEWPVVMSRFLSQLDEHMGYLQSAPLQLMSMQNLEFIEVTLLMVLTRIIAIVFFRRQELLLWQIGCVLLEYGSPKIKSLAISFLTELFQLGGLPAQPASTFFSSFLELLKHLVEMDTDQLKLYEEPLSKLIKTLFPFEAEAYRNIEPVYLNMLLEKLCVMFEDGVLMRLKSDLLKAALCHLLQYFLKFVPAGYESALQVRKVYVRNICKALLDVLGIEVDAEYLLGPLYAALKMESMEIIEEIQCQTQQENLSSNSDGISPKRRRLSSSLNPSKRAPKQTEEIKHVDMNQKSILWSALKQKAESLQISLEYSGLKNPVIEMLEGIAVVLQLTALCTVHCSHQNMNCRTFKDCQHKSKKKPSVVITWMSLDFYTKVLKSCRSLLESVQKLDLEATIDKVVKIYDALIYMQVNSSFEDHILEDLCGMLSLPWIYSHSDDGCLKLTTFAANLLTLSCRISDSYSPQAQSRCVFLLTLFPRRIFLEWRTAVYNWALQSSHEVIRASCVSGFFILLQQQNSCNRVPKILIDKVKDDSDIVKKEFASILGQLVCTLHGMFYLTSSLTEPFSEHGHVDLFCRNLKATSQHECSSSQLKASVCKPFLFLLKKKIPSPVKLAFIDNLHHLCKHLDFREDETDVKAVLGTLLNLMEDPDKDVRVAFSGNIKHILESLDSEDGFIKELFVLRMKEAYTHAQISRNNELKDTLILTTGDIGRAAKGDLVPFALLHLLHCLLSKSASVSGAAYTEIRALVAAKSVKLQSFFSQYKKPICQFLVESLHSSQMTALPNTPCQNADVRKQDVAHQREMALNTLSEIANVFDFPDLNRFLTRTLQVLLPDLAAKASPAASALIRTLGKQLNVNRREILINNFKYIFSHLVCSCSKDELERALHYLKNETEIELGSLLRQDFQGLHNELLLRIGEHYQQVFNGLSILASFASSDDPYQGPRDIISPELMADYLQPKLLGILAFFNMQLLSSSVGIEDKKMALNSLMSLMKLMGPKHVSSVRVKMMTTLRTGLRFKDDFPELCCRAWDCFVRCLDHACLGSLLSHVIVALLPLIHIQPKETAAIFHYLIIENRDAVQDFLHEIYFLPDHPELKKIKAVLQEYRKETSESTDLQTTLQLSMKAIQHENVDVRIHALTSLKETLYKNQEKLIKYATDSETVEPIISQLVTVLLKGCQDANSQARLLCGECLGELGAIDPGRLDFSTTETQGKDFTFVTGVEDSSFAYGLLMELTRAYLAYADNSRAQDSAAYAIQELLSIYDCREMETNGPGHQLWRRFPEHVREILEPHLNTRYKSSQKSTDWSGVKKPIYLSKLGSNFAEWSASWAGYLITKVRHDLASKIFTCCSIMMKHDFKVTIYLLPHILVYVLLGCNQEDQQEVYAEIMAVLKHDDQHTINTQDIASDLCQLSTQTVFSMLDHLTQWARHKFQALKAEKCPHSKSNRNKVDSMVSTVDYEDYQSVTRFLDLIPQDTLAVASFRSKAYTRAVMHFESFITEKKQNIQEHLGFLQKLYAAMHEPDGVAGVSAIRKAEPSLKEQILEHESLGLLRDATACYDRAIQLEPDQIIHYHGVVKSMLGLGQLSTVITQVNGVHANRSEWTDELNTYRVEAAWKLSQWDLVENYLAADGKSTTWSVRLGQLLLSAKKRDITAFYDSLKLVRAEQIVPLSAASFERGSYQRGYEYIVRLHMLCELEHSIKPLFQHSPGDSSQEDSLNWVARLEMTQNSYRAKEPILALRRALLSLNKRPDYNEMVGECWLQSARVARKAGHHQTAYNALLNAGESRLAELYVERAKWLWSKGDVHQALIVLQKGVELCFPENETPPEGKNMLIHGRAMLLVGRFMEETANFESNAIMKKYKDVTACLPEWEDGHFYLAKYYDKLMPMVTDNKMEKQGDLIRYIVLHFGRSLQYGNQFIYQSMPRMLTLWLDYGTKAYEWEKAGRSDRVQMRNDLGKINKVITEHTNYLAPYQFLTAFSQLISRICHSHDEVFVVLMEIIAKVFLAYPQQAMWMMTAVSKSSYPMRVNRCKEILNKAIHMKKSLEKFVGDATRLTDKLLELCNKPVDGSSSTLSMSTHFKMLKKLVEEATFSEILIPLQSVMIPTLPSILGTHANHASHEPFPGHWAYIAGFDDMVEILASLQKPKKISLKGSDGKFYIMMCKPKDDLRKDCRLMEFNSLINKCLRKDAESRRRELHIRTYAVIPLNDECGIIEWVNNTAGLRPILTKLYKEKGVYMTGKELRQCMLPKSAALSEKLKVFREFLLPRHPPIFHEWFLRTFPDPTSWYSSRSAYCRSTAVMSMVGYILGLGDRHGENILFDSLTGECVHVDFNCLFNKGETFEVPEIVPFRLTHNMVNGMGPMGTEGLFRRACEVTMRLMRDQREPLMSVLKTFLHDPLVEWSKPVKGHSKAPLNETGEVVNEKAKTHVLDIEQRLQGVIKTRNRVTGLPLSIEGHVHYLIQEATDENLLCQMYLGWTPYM

pKi, > 8.00:
N#CCc1cnc2c(C(=O)Nc3cnccc3O[C@H]3CCOC3)c(N)nn2c1 [I-O-42, (S)-2-amino-6-(cyanomethyl)-N-(4-((tetrahydrofuran-3-yl)oxy)pyridin-3-yl)pyrazolo[1,5-a]pyrimidine-3-carboxamide]

pKi, 6.00 to 8.00:
CN1CC2(CCN(c3ccncc3NC(=O)c3c(N)nn4cc(F)cnc34)CC2)OC1=O [I-N-216, 2-amino-6-fluoro-N-(4-(3-methyl-2-oxo-1-oxa-3,8-diazaspiro[4.5]decan-8-yl)pyridin-3-yl)pyrazolo[1,5-a]pyrimidine-3-carboxamide]
Nc1nn2cc(F)cnc2c1C(=O)Nc1cnccc1-c1ccccn1 [I-C-60, N-([2,4′-bipyridin]-3′-yl)-2-amino-6-fluoropyrazolo[1,5-a]pyrimidine-3-carboxamide]
N#CC1CN(C(=O)C2CCN(c3ccncc3NC(=O)c3c(N)nn4cc(F)cnc34)CC2)C1 [I-G-81, 2-amino-N-(4-(4-(3-cyanoazetidine-1-carbonyl)piperidin-1-yl)pyridin-3-yl)-6-fluoropyrazolo[1,5-a]pyrimidine-3-carboxamide]
Cc1nnc(N2CCN(c3ccncc3NC(=O)c3c(N)nn4cc(F)cnc34)CC2)o1 [I-N-256, 2-amino-6-fluoro-N-(4-(4-(5-methyl-1,3,4-oxadiazol-2-yl)piperazin-1-yl)pyridin-3-yl)pyrazolo[1,5-a]pyrimidine-3-carboxamide]
Nc1nn2cc(F)cnc2c1C(=O)Nc1cnccc1O[C@H]1CCCN(C2COC2)C1 [I-O-9, (S)-2-amino-6-fluoro-N-(4-((1-(oxetan-3-yl)piperidin-3-yl)oxy)pyridin-3-yl)pyrazolo[1,5-a]pyrimidine-3-carboxamide]
CN1CCN(c2c(Cl)cncc2NC(=O)c2c(N)nn3cc(Cl)cnc23)CC1 [I-N-41, 2-amino-6-chloro-N-(5-chloro-4-(4-methylpiperazin-1-yl)pyridin-3-yl)pyrazolo[1,5-a]pyrimidine-3-carboxamide]
Nc1nn2cc(Cl)cnc2c1C(=O)Nc1cnccc1OCCN1CCOCC1 [I-O-60, 2-amino-6-chloro-N-(4-(2-morpholinoethoxy)pyridin-3-yl)pyrazolo[1,5-a]pyrimidine-3-carboxamide]
Cc1nc(C)n(-c2ccncc2NC(=O)c2c(N)nn3cc(F)cnc23)n1 [I-N-218, 2-amino-N-(4-(3,5-dimethyl-1H-1,2,4-triazol-1-yl)pyridin-3-yl)-6-fluoropyrazolo[1,5-a]pyrimidine-3-carboxamide]
CN1CCN(c2ccncc2NC(=O)c2c(N)nn3cc(Cl)cnc23)CC1(C)C [I-N-53, 2-amino-6-chloro-N-(4-(3,3,4-trimethylpiperazin-1-yl)pyridin-3-yl)pyrazolo[1,5-a]pyrimidine-3-carboxamide]
CN(C)[C@@H]1CCN(C(=O)C2CCN(c3c(F)cncc3NC(=O)c3c(N)nn4cc(F)cnc34)CC2)C1 [I-G-11, (R)-2-amino-N-(4-(4-(3-(dimethylamino)pyrrolidine-1-carbonyl)piperidin-1-yl)-5-fluoropyridin-3-yl)-6-fluoropyrazolo[1,5-a]pyrimidine-3-carboxamide]
CC(C)(C)Oc1ccncc1NC(=O)c1c(N)nn2cc(F)cnc12 [I-O-88, 2-amino-N-(4-(tert-butoxy)pyridin-3-yl)-6-fluoropyrazolo[1,5-a]pyrimidine-3-carboxamide]
C[C@H]1CN(C(=O)C2CCN(c3c(F)cncc3NC(=O)c3c(N)nn4cc(F)cnc34)CC2)CCN1 [I-G-61, (S)-2-amino-6-fluoro-N-(5-fluoro-4-(4-(3-methylpiperazine-1-carbonyl)piperidin-1-yl)pyridin-3-yl)pyrazolo[1,5-a]pyrimidine-3-carboxamide]
Nc1nn2cc(F)cnc2c1C(=O)Nc1cncc(F)c1N1CCN([C@H]2CCOC2)CC1 [I-N-125, (S)-2-amino-6-fluoro-N-(5-fluoro-4-(4-(tetrahydrofuran-3-yl)piperazin-1-yl)pyridin-3-yl)pyrazolo[1,5-a]pyrimidine-3-carboxamide]
CN(C)S(=O)(=O)C1CCN(c2c(F)cncc2NC(=O)c2c(N)nn3cc(F)cnc23)CC1 [I-N-146, 2-amino-N-(4-(4-(N,N-dimethylsulfamoyl)piperidin-1-yl)-5-fluoropyridin-3-yl)-6-fluoropyrazolo[1,5-a]pyrimidine-3-carboxamide]
CN1CC2CN(c3c(Cl)cncc3NC(=O)c3c(N)nn4cc(F)cnc34)CC2C1 (stereo not shown) [I-N-286, 2-amino-N-(5-chloro-4-(5-methylhexahydropyrrolo[3,4-c]pyrrol-2(1H)-yl)pyridin-3-yl)-6-fluoropyrazolo[1,5-a]pyrimidine-3-carboxamide]
Nc1nn2cc(F)cnc2c1C(=O)Nc1cnccc1-n1cccn1 [I-N-26, N-(4-(1H-pyrazol-1-yl)pyridin-3-yl)-2-amino-6-fluoropyrazolo[1,5-a]pyrimidine-3-carboxamide]
CN1C[C@@H]2CCN(c3ccncc3NC(=O)c3c(N)nn4cc(F)cnc34)C[C@@H]2C1=O [I-N-224, 2-amino-6-fluoro-N-(4-((3aR,7aR)-2-methyl-3-oxohexahydro-1H-pyrrolo[3,4-c]pyridin-5(6H)-yl)pyridin-3-yl)pyrazolo[1,5-a]pyrimidine-3-carboxamide]
Nc1nn2cc(F)cnc2c1C(=O)Nc1cnccc1OC1COC1 [I-O-92, 2-amino-6-fluoro-N-(4-(oxetan-3-yloxy)pyridin-3-yl)pyrazolo[1,5-a]pyrimidine-3-carboxamide]
Cc1cc(C(=O)N2CCN(C)CC2)ccc1-c1ccncc1NC(=O)c1c(N)nn2cc(F)cnc12 [I-C-45, 2-amino-6-fluoro-N-(4-(2-methyl-4-(4-methylpiperazine-1-carbonyl)phenyl)pyridin-3-yl)pyrazolo[1,5-a]pyrimidine-3-carboxamide]
CN1CCC(c2ccncc2NC(=O)c2c(N)nn3cc(F)cnc23)CC1=O (stereo not shown) [I-C-73, 2-amino-6-fluoro-N-(4-(1-methyl-2-oxopiperidin-4-yl)pyridin-3-yl)pyrazolo[1,5-a]pyrimidine-3-carboxamide]
Nc1nn2cc(F)cnc2c1C(=O)Nc1cnccc1-c1ccc(C(=O)N2CCN(C3COC3)CC2)nc1 [I-C-52, 2-amino-6-fluoro-N-(6-(4-(oxetan-3-yl)piperazine-1-carbonyl)-[3,4′-bipyridin]-3′-yl)pyrazolo[1,5-a]pyrimidine-3-carboxamide]
Cc1nccnc1-c1ccncc1NC(=O)c1c(N)nn2cc(F)cnc12 [I-C-62, 2-amino-6-fluoro-N-(4-(3-methylpyrazin-2-yl)pyridin-3-yl)pyrazolo[1,5-a]pyrimidine-3-carboxamide]
Nc1nn2cc(Cl)cnc2c1C(=O)Nc1cnccc1OC1CC2(CNC2)C1 [I-O-72, N-(4-(2-azaspiro[3.3]heptan-6-yloxy)pyridin-3-yl)-2-amino-6-chloropyrazolo[1,5-a]pyrimidine-3-carboxamide]
Nc1nn2cc(F)cnc2c1C(=O)Nc1cncc(F)c1N1CCC(C(=O)N2CCN3CC[C@@H]2C3)CC1 [I-G-71, N-(4-(4-((5R)-1,4-diazabicyclo[3.2.1]octane-4-carbonyl)piperidin-1-yl)-5-fluoropyridin-3-yl)-2-amino-6-fluoropyrazolo[1,5-a]pyrimidine-3-carboxamide]
